Experimental data taken from patent publication US4177350A, “Imidazole ethyl oxyalkoxy derivatives and thio analogues thereof” (Siegfried Aktiengesellschaft, priority 1977, dated 1979).

Assays:
[1] = test system: Streptococcus faecalis; assay: minimum inhibitory concentration, gradient plate method, Streptococcus faecalis; type: cell-based; conditions: Enterococcus faecalis, 72 h, gradient 0-100 μg/ml, 10% aqueous dimethyl formamide, evaluated three days after inoculation, read-out: Minimum Inhibitory Concentration, Bacteria, Str
Excerpt: (§1) Test evaluation was made three days after inoculation.

[2] = test system: Trichophyton mentagrophytes; assay: minimum inhibitory concentration, gradient plate method, Trichophyton mentagrophytes; type: cell-based; conditions: 72 h, gradient 0-100 μg/ml, 10% aqueous dimethyl formamide, evaluated three days after inoculation, read-out: Minimum Inhibitory Concentration, Fungi, Tri
Excerpt: as §1

[3] = in vivo; conditions: mouse, po
Excerpt: The results of these tests are summarized in the following Table I together with the oral toxicity values (LD50 per os; mice, values in mg per kg of body weight) determined in the conventional manner.

[4] = test system: Aspergillus niger; assay: minimum inhibitory concentration, gradient plate method, Aspergillus niger; type: cell-based; set-up: key to partial resistancy, Fungi, Asp: partial resistancy observed; conditions: for MIC: 72 h, gradient 0-100 μg/ml, 10% aqueous dimethyl formamide, evaluated three days after inoculation, read-out: Minimum Inhibitory Concentration, Fungi, Asp
Excerpt: as §1

[5] = test system: Staphylococcus aureus haemolyticus; assay: minimum inhibitory concentration, gradient plate method, Staphylococcus aureus haemolyticus; type: cell-based; set-up: key to partial resistancy, Bacteria, St: partial resistancy observed; conditions: for MIC: 72 h, gradient 0-100 μg/ml, 10% aqueous dimethyl formamide, evaluated three days after inoculation, read-out: Minimum Inhibitory Concentration, Bacteria, St
Excerpt: as §1

| Compound | MIC [1] [µg/mL] | MIC [2] [µg/mL] | LD50 [3] [mg/kg] | MIC [4] [µg/mL] | MIC [5] [µg/mL] | partial resistancy, Fungi, Asp [4] | partial resistancy, Bacteria, St [5] |
| --- | --- | --- | --- | --- | --- | --- | --- |
| Clc1ccc(SCOC(Cn2ccnc2)c2ccc(Cl)cc2Cl)nc1 (stereo not drawn) [Example 26, 1-β[(5'-chloropyridyl-2'-thiomethoxy)-2,4-dichlorophenethyl)]-imidazole nitrate] | 20 | < 10 | ~2700 | < 10 | 10 | – | – |
| Clc1ccc(SCOC(Cn2ccnc2)c2ccc(Cl)cc2Cl)cc1 (stereo not drawn) [Example 13, 1-β-(4-chlorophenylthiomethoxy-2,4-dichlorophenethyl)-imidazole nitrate] | 10 | < 10 | 3850 | < 10 | 10 | – | – |
| Clc1ccc(CSCOC(Cn2ccnc2)c2ccc(Cl)cc2Cl)cc1 (stereo not drawn) [Example 23, 1-β-(p-chlorobenzylthiomethoxy-2,4-dichlorophenethyl)-imidazole nitrate] | – | < 10 | > 2000 | < 10 | < 10 | – | – |
| COCOC(Cn1ccnc1)c1ccc(Cl)cc1Cl (stereo not drawn) [Example 1, 1-β-(methoxy-methoxy-2,4-dichlorophenethyl)-imidazole nitrate] | – | < 10 | 540 | < 10 | – | – | – |
| Clc1ccc(C(Cn2ccnc2)OCOc2ccccc2)c(Cl)c1 (stereo not drawn) [Example 2, 1-β-(phenoxymethoxy-2,4-dichlorophenethyl)-imidazole nitrate] | 25 | < 10 | > 3000 | < 10 | 10 | – | – |
| CC(C(OCSc1ccc(Cl)cc1)c1ccc(Cl)cc1Cl)n1ccnc1 (stereo not drawn) [Example 25, 1-[β-(p-chlorophenylthiomethoxy)-2,4-dichlorophenethyl-α-methyl]-imidazole nitrate] | < 10 | < 10 | > 10000 | – | < 10 | r | – |
| Clc1ccc(C(Cn2ccnc2)OCCCOc2ccccc2)c(Cl)c1 (stereo not drawn) [Example 20, 1-β-(3-phenoxypropyloxy-2,4-dichlorophenethyl)-imidazole methane sulfonate] | < 10 | < 10 | ~2400 | < 10 | < 10 | – | – |
| Cc1ccc(OCOC(Cn2ccnc2)c2ccc(Cl)cc2Cl)cc1 (stereo not drawn) [Example 6, 1-β-(4-methylphenoxymethoxy-2,4-dichlorophenethyl)-imidazole nitrate] | 15 | < 10 | > 3000 | < 10 | < 10 | – | – |
| COc1ccccc1OCOC(Cn1ccnc1)c1ccc(Cl)cc1Cl (stereo not drawn) [Example 24, 1-β-(2-methoxyphenoxymethyloxy-2,4-dichlorophenethyl)-imidazole nitrate] | – | < 10 | ~1350 | < 10 | – | – | r |
| CSc1ccc(OCOC(Cn2ccnc2)c2ccc(Cl)cc2Cl)cc1 (stereo not drawn) [Example 8, 1-β-(4-methylthiophenoxymethoxy-2,4-dichlorophenethyl)-imidazole nitrate] | – | < 10 | ~2100 | < 10 | 10 | – | – |
| Clc1ccc(SCCSC(Cn2ccnc2)c2ccc(Cl)cc2Cl)nc1 (stereo not drawn) [Example 29, 1-{β-[(5'-chloropyridyl-2'-thio-2-ethylthio)-2,4-dichlorophenethyl]}-imidazole] | – | < 10 | > 2000 | < 10 | < 10 | – | – |
| Clc1ccc(SCCSC(Cn2ccnc2)c2ccc(Cl)cc2Cl)cc1 (stereo not drawn) [Example 21, 1-β-(4-chlorophenylthioethylthio-2,4-dichlorophenethyl)-imidazole] | – | < 10 | > 3000 | < 10 | < 10 | – | – |
| OCCSC(Cn1ccnc1)c1ccc(Cl)cc1Cl (stereo not drawn) [Example 18, 1-β-(2,4-dichlorophenethyl-β'-hydroxyethylthio)-imidazole nitrate] | 40 | 30 | 1300 | – | 50 | – | – |
| Clc1ccc(C(Cn2ccnc2)OCOc2ccc(-c3ccccc3)cc2)c(Cl)c1 (stereo not drawn) [Example 9, 1-β-(phenylphenoxymethoxy-2,4-dichlorophenethyl)-imidazole nitrate] | – | – | ~3500 | – | – | – | – |
